In this assay the target is JAK1 (Homo sapiens (Human), UniProt P23458). Nature of the assay: Jak Biochemical HTRF Assay (JAK1). The note with it: recombinant GST-tagged catalytic domain, [ATP] 31.8 μM, unit not given (compound concentrations tested given in nM). The source says: Jak Biochemical HTRF Assay Protocol
Subsequent reagent additions employed an Agilent Bravo.

Chain of JAK1 (P23458 875-1153): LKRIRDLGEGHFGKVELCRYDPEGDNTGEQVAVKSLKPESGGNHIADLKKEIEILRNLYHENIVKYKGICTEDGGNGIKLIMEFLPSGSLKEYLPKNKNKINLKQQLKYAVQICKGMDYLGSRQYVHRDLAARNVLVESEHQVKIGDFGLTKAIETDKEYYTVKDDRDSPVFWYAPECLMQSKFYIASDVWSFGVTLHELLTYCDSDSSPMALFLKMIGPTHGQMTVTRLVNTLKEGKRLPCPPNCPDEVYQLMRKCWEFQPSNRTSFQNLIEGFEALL

Consider `CC(C)(C)S(=O)(=O)c1ccc(Nc2nn([C@H]3CCOCC[C@@H]3C#N)c3cc[nH]c(=O)c23)cc1` (single isomer, unassigned) [Example 1-26, (4S,5S or 4R,5R)-5-(3-{[4-(tert-butylsulfonyl)phenyl]amino}-4-oxo-4,5-dihydro-1H-pyrazolo[4,3-c]pyridin-1-yl)oxepane-4-carbonitrile], for which the 50% inhibitory concentration (IC50) was 0.71 nM.

For `CC(C)(C)S(=O)(=O)c1ccc(Nc2nn([C@@H]3CCOCC[C@H]3C#N)c3cc[nH]c(=O)c23)cc1` (single isomer, unassigned) [Example 1-27, (4R,5R or 4S,5S)-5-(3-{[4-(tert-butylsulfonyl)phenyl]amino}-4-oxo-4,5-dihydro-1H-pyrazolo[4,3-c]pyridin-1-yl)oxepane-4-carbonitrile], the IC50 stood at 22.4 nM. Under `CC(C)(C)S(=O)(=O)c1ccc(Nc2nn([C@H]3CCOCC[C@H]3C#N)c3cc[nH]c(=O)c23)cc1` (single isomer, unassigned) [Example 1-28, (4R,5S or 4S,5R)-5-(3-{[4-(tert-butylsulfonyl)phenyl]amino}-4-oxo-4,5-dihydro-1H-pyrazolo[4,3-c]pyridin-1-yl)oxepane-4-carbonitrile] stands 5.34 nM.

Consider `CC(C)(C)S(=O)(=O)c1ccc(Nc2nn([C@@H]3CCOCC[C@@H]3C#N)c3cc[nH]c(=O)c23)cc1` (single isomer, unassigned) [Example 1-29, (4S,5R or 4R,5S)-5-(3-{[4-(tert-butylsulfonyl)phenyl]amino}-4-oxo-4,5-dihydro-1H-pyrazolo[4,3-c]pyridin-1-yl)oxepane-4-carbonitrile], for which the half-maximal inhibitory concentration (IC50) came to 4.38 nM. In the case of `CC(C)(C)NC(c1ccc(Nc2nn([C@H]3COCC[C@@H]3C#N)c3cc[nH]c(=O)c23)cc1)C(F)(F)F` (single isomer, unassigned) [Example 1-50, (3R,4S)-3-[3-({4-[(1R or 1S)-1-(tert-butylamino)-2,2,2-trifluoroethyl]phenyl}amino)-4-oxo-4,5-dihydro-1H-pyrazolo[4,3-c]pyridine-1-yl]tetrahydro-2H-pyran-4-carbonitrile] it was 0.08 nM; in that of `CC(C)(C)NC(c1ccc(Nc2nn([C@H]3COCC[C@@H]3C#N)c3cc[nH]c(=O)c23)cc1)C(F)(F)F` (single isomer, unassigned) [Example 1-51, (3R,4S)-3-[3-[3-({4-[(1S or 1R)-1-(tert-butylamino)-2,2,2-trifluoroethyl]phenyl}amino)-4-oxo-4,5-dihydro-1H-pyrazolo[4,3-c]pyridin-1-yl]tetrahydro-2H-pyran-4-carbonitrile], 0.08 nM; in that of `N#C[C@H]1CCOC[C@@H]1n1nc(Nc2ccc(C(N3CCC3)C(F)(F)F)cc2)c2c(=O)[nH]ccc21` (single isomer, unassigned) [Example 1-56, (3R,4S)-3-[3-({4-[(1R or 1S)-1-azetidin-1-yl-2,2,2-trifluoroethyl]phenyl}amino)-4-oxo-4,5-dihydro-1H-pyrazolo[4,3-c]pyridin-1-yl]tetrahydro-2H-pyran-4-carbonitrile], 0.06 nM. On to `N#C[C@H]1CCOC[C@@H]1n1nc(Nc2ccc(C(N3CCC3)C(F)(F)F)cc2)c2c(=O)[nH]ccc21` (single isomer, unassigned) [Example 1-57, (3R,4S)-3-[3-({4-[(1S or 1R)-1-azetidin-1-yl-2,2,2-trifluoroethyl]phenyl}amino)-4-oxo-4,5-dihydro-1H-pyrazolo[4,3-c]pyridin-1-yl]tetrahydro-2H-pyran-4-carbonitrile], for which the half-inhibitory concentration (IC50) is 0.09 nM. In the case of `N#C[C@H]1CCOCC1n1nc(Nc2ccc(C3(C(F)(F)F)CCNC3)cc2)c2c(=O)[nH]ccc21` (single isomer, unassigned) [Example 1-98, (3R,4S)-3-(4-oxo-3-((4-((S or R)-3-(trifluoromethyl)pyrrolidin-3-yl)phenyl)amino)-4,5-dihydro-1H-pyrazolo[4,3-c]pyridin-1-yl)tetrahydro-2H-pyran-4-carbonitrile] it was 0.06 nM.

The record behind these values is patent US9957265B2, “N-(2-cyano heterocyclyl) pyrazolo pyridones as janus kinase inhibitors” (Merck Sharp & Dohme Corp., priority 2013, dated 2018).
